Data from patent US9187424B1, “Aryl dihydropyridinones and piperidinone MGAT2 inhibitors” (Bristol-Myers Squibb Company, priority 2011, dated 2015).

Biological target: Human MGAT-2 (Homo sapiens (Human), UniProt Q3SYC2)
Assay: MGAT LCMS Assay (human MGAT-2);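 note: diolein product quantified by LC/MS with positive APCI, expressed as peak area ratio versus an internal standard, and this ratio used to derive IC50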
Format: biochemical
Conditions: human MGAT-2 membranes expressed in Sf9 cells; 2-oleoylglycerol and oleoyl-Coenzyme A; read-out: h-MGAT2 IC50 (nM) LCMS Assay

Chain of Human MGAT-2 (Q3SYC2 whole entry): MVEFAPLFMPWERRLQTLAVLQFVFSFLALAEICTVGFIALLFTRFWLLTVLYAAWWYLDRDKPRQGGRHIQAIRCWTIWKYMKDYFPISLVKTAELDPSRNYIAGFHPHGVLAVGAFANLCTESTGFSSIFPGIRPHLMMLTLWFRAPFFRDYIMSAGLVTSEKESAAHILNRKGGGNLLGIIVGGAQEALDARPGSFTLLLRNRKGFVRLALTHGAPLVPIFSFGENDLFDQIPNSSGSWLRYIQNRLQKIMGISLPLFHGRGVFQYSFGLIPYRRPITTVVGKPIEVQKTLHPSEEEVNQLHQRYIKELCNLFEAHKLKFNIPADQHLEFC

Row | Structure (SMILES) | IC50 [nM]
1 | Cc1ccc(C2=C(c3cn[nH]n3)C(=O)NC(C#CCCc3ccccc3)(C(F)(F)F)C2)cc1 (stereo not shown) [Example 198] | 16
2 | Cc1ccc(C2=C(C#N)C(=O)NC(c3ccc(OCCCC(F)(F)F)cc3)(C(F)(F)F)C2(F)F)cc1 (stereo not shown) [Example 160] | 5400
3 | Cc1ccc(C2=C(NC(=O)[C@@H](C)O)C(=O)NC(c3ccc(OCCCC(F)(F)F)cc3)(C(F)(F)F)C2)cc1 (stereo partly shown) [Example 253] | 411
4 | O=C1NC(c2ccc(OCCCC(F)(F)F)cc2)(C(F)(F)F)CC(c2ccc(OC(F)F)cc2)=C1c1nn[nH]n1 (stereo not shown) [Example 245] | 46
5 | O=C1NC(c2ccc(OCCCC(F)(F)F)cc2F)(C(F)(F)F)CC(c2ccc(CC3CC3)cc2)=C1c1nn[nH]n1 (stereo not shown) [Example 277] | 2
6 | Cc1ccc(C2=C(C(=O)NC3CCCC3)C(=O)NC(c3ccc(OCCCC(F)(F)F)cc3)(C(F)(F)F)C2(F)F)cc1 (stereo not shown) [Example 141] | 459
7 | O=C1NC(c2ccc(OCCCCCC(F)(F)F)cc2)(C(F)(F)F)CC(c2ccc(OCC(F)F)cc2)=C1c1nn[nH]n1 (stereo not shown) [Example 248] | 8
8 | CCOc1ccc(C2=C(c3nn[nH]n3)C(=O)NC(c3ccc(OCCCC(F)(F)F)cc3)(C(F)(F)F)C2)cc1 (stereo not shown) [Example 208] | 30
9 | CCCCCCCC#CC1(C(F)(F)F)CC(c2ccc(C)cc2)=C(c2cn[nH]n2)C(=O)N1 (stereo not shown) [Example 196] | 826
10 | O=C1NC(c2ccc(OCCCCCC(F)(F)F)c(F)c2)(C(F)(F)F)CC(c2ccc(OC(F)F)cc2)=C1c1nn[nH]n1 (stereo not shown) [Example 301] | 19
11 | Cc1ccc(C2=C(c3cn[nH]n3)C(=O)NC(C#CCCC(C)C)(C(F)(F)F)C2)cc1 (stereo not shown) [Example 199] | 16
12 | CCCCCCCn1ccc(C2(C)CC(c3ccc(C)cc3)=C(C#N)C(=O)N2)n1 (stereo not shown) [Example 109, 6-(1-Heptyl-1H-pyrazol-3-yl)-6-methyl-2-oxo-4-p-tolyl-1,2,5,6-tetrahydropyridine-3-carbonitrile] | 39
13 | Cc1ccc(C2=C(n3ccnc3)C(=O)NC(c3ccc(OCCCC(F)(F)F)cc3)(C(F)(F)F)C2)cc1 (stereo not shown) [Example 114] | 704
14 | Cc1ccc(C2=C(C(=O)Nc3cc(C)[nH]n3)C(=O)NC(c3ccc(OCCC(F)(F)F)cc3)(C(F)(F)F)C2)cc1 (stereo not shown) [Example 131] | 1050
15 | CCOc1ccc(C2=C(c3nn[nH]n3)C(=O)NC(c3ccc(OCCCCCC(F)(F)F)cc3F)(C(F)(F)F)C2)cc1 (stereo not shown) [Example 283] | 3
16 | Cc1ccc(C2=C(NC(=O)c3cn(C)nn3)C(=O)NC(c3ccc(OCCCC(F)(F)F)cc3)(C(F)(F)F)C2)cc1 (stereo not shown) [Example 246] | 36
17 | COc1ccc(NC(=O)C2=C(c3ccc(C)cc3)CC(C)(C(=O)NCc3ccccc3)NC2=O)cc1 (stereo not shown) [Example 189] | 1160
18 | CCCCCCC#Cc1ccc(C2(C(F)(F)F)CC(c3ccc(OC(F)F)cc3)=C(c3nn[nH]n3)C(=O)N2)cc1F (stereo not shown) [Example 307] | 3
19 | Cc1ccc(C2=C(c3nn[nH]n3)C(=O)NC(c3ccc(Br)cc3)(C(F)(F)F)C2)cc1 (stereo not shown) [Example 233] | 639
20 | COc1ccc(C(=O)NC2=C(c3ccc(C)cc3)C(F)(F)C(c3ccc(OCCC(F)(F)F)cc3)(C(F)(F)F)NC2=O)cc1 (stereo not shown) [Example 162] | 214
21 | Cc1ccc(C2=C(C(=O)Nc3nn[nH]n3)C(=O)NC(c3ccc(OCCC(F)(F)F)cc3)(C(F)(F)F)C2)cc1 (stereo not shown) [Example 125] | 282
22 | COc1ccc(C(=O)NC2=C(c3ccc(C)cc3)CC(c3cnn(CCCCC(F)(F)F)c3)(C(F)(F)F)NC2=O)cc1 (stereo not shown) [Example 229] | 25
23 | CCOc1ccc(C2=C(c3nn[nH]n3)C(=O)NC(c3ccc(OCCCCCC(F)(F)F)c(F)c3)(C(F)(F)F)C2)cc1 (stereo not shown) [Example 305] | 94

Row | Structure (SMILES) | IC50 [nM]
24 | Cc1ccc(C2=C(n3cnnc3C)C(=O)NC(c3ccc(OCCCC(F)(F)F)cc3)(C(F)(F)F)C2)cc1 (stereo not shown) [Example 186] | 229
25 | CCCCCCC(=O)CNC(=O)C1(C)CC(c2ccc(C)cc2)=C(NC(=O)c2ccc(OC)cc2)C(=O)N1 (stereo not shown) [Example 191] | 797
26 | Cc1ccc(C2=C(NC(=O)c3ccccc3F)C(=O)NC(c3ccc(OCCCC(F)(F)F)cc3)(C(F)(F)F)C2)cc1 (stereo not shown) [Example 249] | 185
27 | COc1ccc(C2=C(c3ccc(C)cc3)C(F)(F)C(c3ccc(OCCCC(F)(F)F)cc3)(C(F)(F)F)NC2=O)cn1 (stereo not shown) [Example 140] | 356
28 | O=C1NC(c2ccc(OCCCC(F)(F)F)cc2)(C(F)(F)F)CC(c2ccc(OC(F)F)cc2)=C1c1nn[nH]n1 (stereo not shown) [Example 205] | 13
29 | Cc1ccc(C2=C(C(=O)Nc3nnc(C(F)(F)F)o3)C(=O)NC(c3ccc(OCCC(F)(F)F)cc3)(C(F)(F)F)C2)cc1 (stereo not shown) [Example 136] | 328
30 | CCCCCCC#Cc1ccc(C2(C(F)(F)F)CC(c3ccc(OCC)cc3)=C(c3nn[nH]n3)C(=O)N2)cc1F (stereo not shown) [Example 308] | 61
31 | O=C1NC(c2ccc(OCCCC(F)(F)F)cc2)(C(F)(F)F)CC(c2ccc(OC(F)F)cc2)=C1NC(=O)c1ccncc1 (stereo not shown) [Example 275] | 2
32 | COc1ccc(C2=C(c3nn[nH]n3)C(=O)NC(c3ccc(OCCCC(F)(F)F)cc3)(C(F)(F)F)C2)c2c1CCC2 (stereo not shown) [Example 212] | 416
33 | COc1ccc(C2=C(C#N)C(=O)NC(c3ccc(OCCCC(F)(F)F)cc3)(C(F)(F)F)C2)cc1Cl (stereo not shown) [Example 223] | 112
34 | Cc1ccc(C2=C(Oc3ccccc3)C(=O)N[C@@](c3ccc(OCCCC(F)(F)F)cc3)(C(F)(F)F)C2)cc1 [Example 106, (S)-3-Phenoxy-4-p-tolyl-6-(4-(4,4,4-trifluorobutoxy)phenyl)-6-(trifluoromethyl)-5,6-dihydropyridin-2(1H)-one] | 552
35 | CCOCc1ccc(C2=C(c3nn[nH]n3)C(=O)NC(c3ccc(OCCCC(F)(F)F)cc3)(C(F)(F)F)C2)cc1F (stereo not shown) [Example 203] | 59
36 | CCCCCCC#CC1(C(F)(F)F)CC(c2ccc(C)cc2)=C(NC(=O)c2cccnc2)C(=O)N1 (stereo not shown) [Example 300] | 11
37 | Cc1ccc(NC(=O)C2=C(c3ccc(C)cc3)C(F)(F)C(c3ccc(OCCC(F)(F)F)cc3)(C(F)(F)F)NC2=O)cc1 (stereo not shown) [Example 135] | 778
38 | O=C1NC(c2ccc(OCCCC(F)(F)F)cc2)(C(F)(F)F)CC(c2ccc3c(c2)OCCO3)=C1c1nn[nH]n1 (stereo not shown) [Example 209] | 37
39 | COOSNc1ccc(C2=C(C#N)C(=O)NC(c3ccc(OCCCC(F)(F)F)cc3)(C(F)(F)F)C2)cc1 (stereo not shown) [Example 225] | 889
40 | COc1ccc(C2=C(C#N)C(=O)NC(c3ccc(OCCCC(F)(F)F)cc3)(C(F)(F)F)C2)cc1Cl (stereo not shown) [Example 258] | 1150
41 | CCCCCCCC#CC1(C(F)(F)F)CC(c2ccc(C)cc2)=C(c2cn[nH]n2)C(=O)N1 (stereo not shown) [Example 195] | 33
42 | O=C1NC(c2ccc(OCCCC(F)(F)F)cc2)(C(F)(F)F)CC(c2ccc3ccccc3c2)=C1c1nn[nH]n1 (stereo not shown) [Example 207] | 11
43 | Cc1ccc(C2=C(c3nn[nH]n3)C(=O)NC(c3ccc(C#CC4CCCCC4)cc3)(C(F)(F)F)C2)cc1 (stereo not shown) [Example 291] | 178
44 | Cc1ccc(C2=C(C(=O)Nc3ccc(-c4nn[nH]n4)cc3)C(=O)NC(c3ccc(OCCC(F)(F)F)cc3)(C(F)(F)F)C2(F)F)cc1 (stereo not shown) [Example 134] | 168
45 | COc1cccc(C2=C(c3nn[nH]n3)C(=O)NC(c3ccc(OCCCC(F)(F)F)cc3)(C(F)(F)F)C2)c1 (stereo not shown) [Example 100] | 1580
46 | CCOc1ccc(C2=C(C#N)C(=O)NC(c3ccc(OCCCC(F)(F)F)cc3)(C(F)(F)F)C2)cc1Cl (stereo not shown) [Example 263] | 103
